Measured values published in patent US20050002983A1, “Devices, methods, and compositions to prevent restenosis” (priority 2003, published 2005).

Assays:
[1] = system: Human aortic smooth muscle cells; assay: IC50 by CellTiter-Glo Luminescent Cell Viability Assay, smooth muscle cells; format: cell-based
Procedure: The cells were seeded in duplicate, in opaque-walled 96-well microtiter plates at a cell density of 3,000 cells per well and allowed to attach overnight. Serial dilutions of each drug were added, and the cells were incubated for 96 hours. The IC50 values for the drugs was determined using the CellTiter-Glo Luminescent Cell Viability Assay (Promega, Madison, Wis.), which correlates with the number of live cells.

endothelial cells = assay: Cytotoxicity IC50 against endothelial cells; format: cell-based
Solubility in PBS = format: physicochemical
[2] = system: Human aortic smooth muscle cells (AoSMCs); assay: MTS cell viability/proliferation assay, AoSMC, Days 0-5; details: for dose-response of cell viability (optical density): 10, 100, 1,000 nM, SMCs and HUVECs, Days 0-5
Procedure: Human aortic smooth muscle cells (“AoSMCs”) and human umbilical vein endothelial cells (“HUVECs”) were plated on 96-well culture plates at a density of about 10,000 cells per square centimeter (10,000 cells/cm^2). The density was determined using growth curves determined by calculating the average absolute optical densities (“ODs”, defined as cellular OD—media only OD) for each plating concentration, for each day, and each cell type (AoSMC or HUVEC) over a five-day time period.
Prior to experiments, the AoSMCs and HUVECS were thawed and independently propagated through two- or three population doublings following Clonetics recommendations and standard cell culture techniques. Clonetics Growth Media and Reagents were used without alteration in all aspects of the study described herein unless otherwise noted. […] SMGM contained: 500 ml SMBM-2 basal media, 5% FBS, and all recommended singlequot growth supplements (provided with SMGM-2 bulletkit) ECGM contained: 500 ml EBM basal media, 2% FBS, and all recommended singlequot growth supplements (provided with EGM-bulletkit).
After initial plating all 96-well plates were placed in a standard 37° C., 5% CO2 incubator. Conditions, including media, were not changed except as detailed below. For consecutive 24-hour time-periods, from Day 1 to Day 5, a single 96-well plate was removed from the incubator.
Cell Preparation Source cells were selected at 70-80% confluency of the second or third population doubling since initial thaw. In order to synchronize cell cycle, source cells were changed from standard growth media to media containing 1% serum twenty-four hours prior to experiment (other growth factors were unchanged). On Day 0 of the experiment, source cells were removed from culture dishes by trypsinization (0.05×1 min.-2 min), quantified by hemacytometer after centrifuge (800 RPM×5 min.), and re-suspended in media to obtain a stock solution of about 25,000 cells/ml.
The drugs were dissolved in dimethylsulfoxide (“DMSO”) solvent to make stock solutions, which were then diluted serially in media to three study concentrations (10 nM; 100 nM; and 1,000 nM). The drugs at three concentration each, solvent without drug at three concentrations, and standard media were added independently to cells on the first day of the study only. Cells in two columns (16 wells) for each cell type on each day will not receive drug and serve as internal controls. Cellular viability and proliferation was assessed using the MTS assay for each cell type at each of the six time points.
On Day 1, six hours after initial plating, the media was removed from all wells by vacuum suction; and with the appropriate growth media-drug solution for each of three drugs at three concentrations described above was added to the wells. […]

[3] = Release kinetics of epothilone D from polymer matrices; format: physicochemical

In the case of `C=CCNC1=C2C[C@@H](C)C[C@H](OC)[C@H](O)[C@@H](C)/C=C(\C)[C@H](OC(N)=O)[C@@H](OC)/C=C\C=C(/C)C(=O)NC(=CC1=O)C2=O` [17-AAG, 17-allylamino-17-desmethoxygeldanamycin], the IC50 ([1]; smooth muscle cells) is reported as ~10 nM, the IC50 (endothelial cells) is reported as 350 nM and the solubility (Solubility in PBS) is reported as 60 micrograms/mL. The “dose-response of cell viability (optical density)” value (from here on “dose-response of cell viability”) [2] was “dose-response characteristics consistent with utility to reduce or prevent restenosis”.

With `CO[C@H]1/C=C\C=C(/C)C(=O)NC2=CC(=O)C(NCCN(C)C)=C(C[C@@H](C)C[C@H](OC)[C@H](O)[C@@H](C)/C=C(\C)[C@@H]1OC(N)=O)C2=O` [17-DMAG, 17-[2-(dimethylamino)ethylamino]-17-desmethoxygeldanamycin] the “dose-response of cell viability” value [2] was “dose-response characteristics consistent with utility to reduce or prevent restenosis” and the “selectivity for SMCs over ECs” value ([2]; AoSMC vs HUVEC viability, 10-1,000 nM) was “relative selectivity for SMCs over ECs”.

In the case of `C/C1=C/C[C@@H](/C(C)=C/c2csc(C)n2)OC(=O)C[C@H](O)C(C)(C)C(=O)[C@H](C)[C@@H](O)[C@@H](C)CCC1` [epothilone D], the “release rate from polymer matrix” value ([3]; from poly(lactide)) is reported as “approximately 6 micrograms/day”, the “release rate from polymer matrix” value ([3]; from polyurethane) is reported as 1.58 micrograms/day and the “dose-response of cell viability” value [2] is reported as “dose-response characteristics consistent with utility to reduce or prevent restenosis”.

Work on `COC1=C2C[C@@H](C)C[C@H](OC)[C@H](O)[C@@H](C)/C=C(\C)[C@H](OC(N)=O)[C@@H](OC)/C=C\C=C(/C)C(=O)NC(=CC1=O)C2=O` [geldanamycin, reference compound] yielded an IC50 ([1]; Homo sapiens) of ~0.9 nM.
